According to ChEMBL document CHEMBL4346735, “Discovery and pharmacological evaluation of indole derivatives as potent and selective RORγt inverse agonist for multiple autoimmune conditions” (Bioorg Med Chem Lett, 2019):

Assays:
[1] = Cytotoxicity against Balb/c mouse splenocytes assessed as cell viability in presence of anti-CD3/anti-CD28 measured after 24 hrs; format: cell-based, Splenocyte; details: read-out: Activity
[2] = target: T1, Nuclear receptor ROR-gamma (Mus musculus, UniProt P51450); assay: Transrepression of RORgammat in Balb/c mouse splenocytes assessed as reduction in anti-CD3/anti-CD28 stimulated IL-17 level measured after 48 hrs in presence of anti-CD3/anti-CD28 by ELISA; format: cell-based
T1 sequence (P51450 whole entry): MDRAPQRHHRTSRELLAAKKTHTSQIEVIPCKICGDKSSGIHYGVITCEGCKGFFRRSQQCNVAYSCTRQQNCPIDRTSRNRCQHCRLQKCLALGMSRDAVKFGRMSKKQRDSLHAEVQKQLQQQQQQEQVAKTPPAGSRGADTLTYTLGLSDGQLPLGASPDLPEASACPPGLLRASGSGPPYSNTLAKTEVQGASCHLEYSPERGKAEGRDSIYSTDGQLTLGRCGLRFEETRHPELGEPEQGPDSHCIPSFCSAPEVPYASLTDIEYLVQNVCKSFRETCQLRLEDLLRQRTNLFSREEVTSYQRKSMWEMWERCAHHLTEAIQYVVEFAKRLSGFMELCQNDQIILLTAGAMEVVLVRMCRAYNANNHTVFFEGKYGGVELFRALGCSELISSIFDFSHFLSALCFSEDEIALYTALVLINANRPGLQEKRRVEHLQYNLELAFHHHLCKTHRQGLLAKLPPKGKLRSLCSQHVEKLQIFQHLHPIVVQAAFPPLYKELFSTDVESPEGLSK

[3] = Transrepression of RORgammat in cytostim stimulated human whole blood assessed as suppression of IL-17 secretion incubated for 24 hrs; format: tissue-based
[4] = tested on: Splenocyte; assay: Cytotoxicity against mouse splenocytes assessed as cell viability incubated for 6 days in presence of anti-CD4/anti-IFNgamma/TGFbeta/IL-6; format: cell-based; details: 144 h
[5] = Metabolic stability in mouse hepatocytes assessed as parent compound remaining after 60 mins; format: ADME, cell-based, Hepatocyte; details: read-out: Stability
[6] = Metabolic stability in rat hepatocytes assessed as parent compound remaining after 60 mins; format: ADME, cell-based, Hepatocyte; details: read-out: Stability
[7] = Metabolic stability in human hepatocytes assessed as parent compound remaining after 60 mins; format: ADME, cell-based, Hepatocyte; details: read-out: Stability
[8] = Metabolic stability in simulated gastric fluid assessed as compound remaining after 15 mins; format: ADME; details: read-out: Stability
[9] = Metabolic stability in simulated gastric fluid assessed as compound remaining after 30 mins; format: ADME; details: read-out: Stability
[10] = Metabolic stability in simulated gastric fluid assessed as compound remaining after 45 mins; format: ADME; details: read-out: Stability
[11] = Metabolic stability in simulated gastric fluid assessed as compound remaining after 60 mins; format: ADME; details: read-out: Stability
[12] = Metabolic stability in simulated intestinal fluid assessed as compound remaining after 15 mins; format: ADME; details: read-out: Stability
[13] = Metabolic stability in simulated intestinal fluid assessed as compound remaining after 30 mins; format: ADME; details: read-out: Stability
[14] = Metabolic stability in simulated intestinal fluid assessed as compound remaining after 2 hrs; format: ADME; details: read-out: Stability
[15] = Plasma protein binding in mouse; format: ADME; details: read-out: PPB (converted)
[16] = Plasma protein binding in rat; format: ADME; details: read-out: PPB
[17] = Plasma protein binding in dog; format: ADME, Canis lupus familiaris; details: read-out: PPB
[18] = tested on: HepG2; assay: Cytotoxicity against human HepG2 cells
[19] = Tmax in mouse at 10 mg/kg, po; format: ADME, organism-based; details: in vivo
[20] = AUC (0 to 24 hrs) in mouse at 10 mg/kg, po; format: ADME, organism-based; set-up: dose 10 mg/kg, time < 24 hr, route oral; details: in vivo
[21] = Volume of distribution at steady state in mouse at 3 mg/kg, iv; format: ADME, organism-based; details: in vivo, read-out: Vdss
[22] = Half life in mouse at 3 mg/kg, iv; format: ADME, organism-based; details: in vivo
[23] = Oral bioavailability in mouse at 10 mg/kg; format: ADME, organism-based; details: in vivo
[24] = AUC in mouse brain at 10 mg/kg, po; format: ADME, organism-based
[25] = AUC in mouse skin at 10 mg/kg, po; format: ADME, organism-based, Zone of skin
[26] = AUC in mouse liver at 10 mg/kg, po; format: ADME, organism-based
[27] = tested on: Mus musculus; assay: Inhibition of anti-CD3-induced IL-17A level in Balb/c mouse plasma at 30 mg/kg, po treated prior to stimulation with anti-CD3 for 3 hrs relative to control; format: functional
[28] = tested on: Mus musculus; assay: (§1) Immunosuppressive activity in MOG (35 to 55 residues)/pertussis toxin-induced experimental allergic encephalomyelitis C57BL/6J mouse model assessed as reduction in disease severity score at 30 mg/kg, po bid measured at day 21 relative to dexamethasone; format: functional; details: 504 h
[29] = tested on: Mus musculus; assay: Immunosuppressive activity in MOG (35 to 55 residues)/pertussis toxin-induced experimental allergic encephalomyelitis C57BL/6J mouse model assessed as reduction in disease severity score at 30 mg/kg, po bid measured at day 23 relative to dexamethasone; format: functional; details: 552 h
[30] = target: T2, Nuclear receptor ROR-alpha (Homo sapiens, UniProt P35398); assay: Inhibition of GAL4-DBD fused RORalpha LBD (unknown origin) expressed in HEK293T cells; format: cell-based
T2 sequence (P35398 whole entry): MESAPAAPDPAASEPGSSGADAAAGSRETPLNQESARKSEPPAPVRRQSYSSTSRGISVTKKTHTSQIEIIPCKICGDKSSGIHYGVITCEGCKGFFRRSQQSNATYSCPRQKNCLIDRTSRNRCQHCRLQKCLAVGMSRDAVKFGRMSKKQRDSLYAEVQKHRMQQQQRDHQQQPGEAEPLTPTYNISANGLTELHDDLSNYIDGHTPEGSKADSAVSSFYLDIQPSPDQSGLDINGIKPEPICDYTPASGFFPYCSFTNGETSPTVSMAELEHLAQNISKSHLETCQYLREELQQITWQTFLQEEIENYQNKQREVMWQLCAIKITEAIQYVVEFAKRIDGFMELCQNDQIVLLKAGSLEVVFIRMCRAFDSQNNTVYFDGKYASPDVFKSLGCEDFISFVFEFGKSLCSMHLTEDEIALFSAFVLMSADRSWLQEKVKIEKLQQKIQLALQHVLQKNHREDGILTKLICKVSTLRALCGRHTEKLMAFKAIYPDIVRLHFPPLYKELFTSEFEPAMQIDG

[31] = tested on: Mus musculus; assay: as §1, with “IL-17F gene expression in spinal cord” for “disease severity score”, “19 post MOG immunization/pertusis immunization” for “21”, “control” for “dexamethasone”; format: functional; details: 456 h
[32] = tested on: Mus musculus; assay: as §1, with “CCR6 gene expression in spinal cord” for “disease severity score”, “19 post MOG immunization/pertusis immunization” for “21”, “control” for “dexamethasone”; format: functional; details: 456 h
[33] = Metabolic stability in mouse liver microsomes assessed as parent compound remaining at 1 uM preincubated for 5 mins followed by NADPH addition after 30 mins by LC-MS/MS analysis; format: ADME, Microsome; details: read-out: Stability
[34] = Metabolic stability in rat liver microsomes assessed as parent compound remaining at 1 uM preincubated for 5 mins followed by NADPH addition after 30 mins by LC-MS/MS analysis; format: ADME, Microsome; details: read-out: Stability
[35] = Metabolic stability in human liver microsomes assessed as parent compound remaining at 1 uM preincubated for 5 mins followed by NADPH addition after 30 mins by LC-MS/MS analysis; format: ADME, Microsome; details: read-out: Stability

O=C(O)c1ccc(-n2cc(C(=O)c3c(Cl)cccc3Cl)c3cccc(F)c32)cc1
viability at 24 h [1]: > 95%
IC50 [2]: 500 to 503 nM
IC50 [3]: 490 nM
Activity [4]: Non-Toxic
remaining at 1 h [5]: 80%
remaining at 1 h [6]: 57%
remaining at 1 h [7]: 59%
remaining at […] [8]: 84%
remaining at 0.5 h [9]: 90%
remaining at 0.75 h [10]: 93%
remaining at 1 h [11]: 93%
remaining at […] [12]: 100%
remaining at 0.5 h [13]: 100%
remaining at 2 h [14]: 99%
fraction unbound [15]: 0.02
fraction unbound [16]: 0.01
fraction unbound [17]: 0.01
IC50 [18]: > 50 µM
Tmax [19]: 30 min
AUC(0-t) at 24 h [20]: 10.4 µM·h
Vd [21]: 4.8 L/kg
half-life [22]: 144 min
bioavailability [23]: 72%
AUC [24]: 0.29 µM·h
AUC [25]: 11 µM·h
AUC [26]: 400 µM·h
inhibition in vivo at 30 mg/kg [27]: 33%
inhibition in vivo at 30 mg/kg [28]: 26%
inhibition in vivo at 30 mg/kg [29]: 39%
IC50 [30]: > 10 µM
inhibition in vivo at 30 mg/kg [31]: 70%
inhibition in vivo at 30 mg/kg [32]: 60%
remaining at 0.5 h, 1 µM [33]: 78%
remaining at 0.5 h, 1 µM [34]: 100%
remaining at 0.5 h, 1 µM [35]: 88%
